Values quoted from earlier work, collected in patent US11111208B2, “Process for the preparation of safinamide mesylate intermediate” (RK Pharma Solutions LLC, priority 2019, dated 2021).
Counter-ions that a name gives are not always drawn. Like-named read-outs stand apart in the source and are kept apart here.

Key:
[1] = not given; remark: listed apart in the source

Compound	solubility (aqueous buffer pH 1.2)	solubility (aqueous buffer pH 4.5)	solubility (aqueous buffer pH 6.8) [µg/mL]	solubility (aqueous buffer pH 7.5) [µg/mL]	solubility ([1]; in dimethyl sulfoxide)	solubility ([1]; in ethanol)	solubility ([1]; in ethyl acetate)	solubility ([1]; in methanol)	solubility ([1]; in water)	neuroprotective and neurorescuing effects (gerbil ischemia model)	neuroprotective and neurorescuing effects (rat kainic acid model)	neuroprotective and neurorescuing effects (MPTP-treated mice)
C[C@H](NCc1ccc(OCc2cccc(F)c2)cc1)C(N)=O [Safinamide mesylate, (S)-2-[[4-[(3-fluorophenyl)methoxy]phenyl]methyl]aminopropanamide methanesulfonate (1:1)]	highly soluble	highly soluble	< 400	< 400	freely soluble	sparingly soluble	practically insoluble	freely soluble	freely soluble			
C[C@H](NCc1ccc(OCc2cccc(F)c2)cc1)C(N)=O [Safinamide, (S)-2-[4-(3-fluorobenzyloxy)-benzylamino]propanamide]										neuroprotective and neurorescuing effects	neuroprotective and neurorescuing effects	neuroprotective and neurorescuing effects
